Results published in patent US20190323025A1, “COMPOSITIONS AND METHODS FOR DELIVERY OF MOLECULES TO PLANTS” (BLOOMSBURG UNIVERSITY OF PENNSYLVANIA, priority 2018, published 2019).

What was measured:
[1] = system: AvsYS1 avenic acid/Fe+3 transporter; experiment: Yeast growth assay in liquid medium with phytosiderophore/Fe+3 complex as the only available iron, strain DEY1453 transformed with pJKD1 (pYES2/AvsYS1) or pYES2; assay type: cell-based, Avena sativa; details: for growth of yeast with transporter (DEY1453:pJKD1, 53K): S. cerevisiae DEY1453:pJKD1 (pYES2/AvsYS1), YNB minimal medium pH 7.5, BPDS, iron only as Fe+3 complexed with the substance
Excerpt: AvsYS1 (Genbank FJ477297.1) was isolated using 5′RACE from the roots of iron starved oats (Avena sativa). Primers were designed by comparing one functionally confirmed phytosiderophore/Fe^+3 transporter (HvYS1) and other iron transport proteins. After obtaining a full-length clone, we subcloned the gene (AvsYS1) into a yeast galactose inducible expression vector (pYES2). The resultant plasmid was designated pJKD1. We obtained a yeast strain that lacks the ability to take up ferric iron and transformed it with pYES2 and pJKD1. The transformants were grown under identical conditions in which the only iron available was in the Fe^+3/avenic acid complex.
We engineered the AvsYS1 gene into a galactose inducible expression systems vector (pYES2). Our first major result was the functional confirmation of the AvsYS1 gene. We transformed pYES2 and pJKD1 (pYES2/AvsYS1) into a strain of S. cerevisiae (DEY1453) that lacks the ability to take up Fe^3+. In the process, we developed a new assay based on growth in liquid medium. The advantage of this assay over more traditional assays used in yeast-based PS/Fe^+3 assays is that it is quantifiable. Other assays (e.g., Murata, 2006) grow yeast on a solid plate, and qualitative growth of colonies is used. With our assay, we can generate numerical data based on the density as measured by the absorbance at 600 nm. […] Further detail is provided below.
53Y=DEY1453:pYES2 (no transporter) 53K=DEY1453:pJKD1 (pYES2/AvsYS1 [transporter]) DOB—Complete medium, supplemented w/FeSo4, ampicillin 50 YNB-minimal medium, pH7.5, BPDS (ferrous chelator), ampicillin,
Protocols included: 53Y and 53K in DOB+FeSO4, 53Y and 53K in YNB supplemented with Avenic acid; 53Y and 53K supplemented with BPA-1-068B; 53Y and 53K in YNB w/ no supplements; uninoculated YNB; uninoculated DOB.
53Y=DEY1453:pYES2 (no transporter) 53K=DEY1453:pJKD1 (pYES2/AvsYS1 [transporter]) DOB—Complete medium, supplemented w/FeSo4, ampicillin 50 YNB-minimal medium, pH7.5, BPDS (ferrous chelator), ampicillin, Ø=no supplementation
Protocols included: 53Y and 53K, supplemented with Avenic acid, 53Y and 53K supplemented with BPA-1-068B, 53Y and 53K in YNB w/ no supplements.
3Y=DEY1453:pYES2 (no transporter) 3K=DEY1453:pJKD1 (pYES2/AvsYS1 [transporter]) Strains grown in YNB/Gal, pH 7.5, Amp50, Avenic acid: Fe^+3, 5:1
Another interesting observation was made in relation to growth of the DEY1453:pJKD1 using one of the analogs complexed with Fe^+3. […] This was a very significant result because it provided strong (though not dispositive) evidence in support of our Trojan Horse delivery technology.

[2] = system: Micro-Tom tomatoes, AvsYS1 transformants (MT*) and untransformed (MT); experiment: Hydroponic growth of Micro-Tom tomatoes under iron limiting conditions with iron provided as FeCl3/avenic acid; assay type: in vivo, tomato; details: Hoagland's solution (-Fe), pH 7.4, 10 μM FeCl3 complexed with 15 μM avenic acid
Excerpt: RNA was isolated from […]. A cDNA (AvsYSl) was isolated and its functionality confirmed as a phytosiderophore/Fe^+3 transporter that mitigates the effects of Iron Deficiency Chlorosis in transgenic Micro-Tom™ tomatoes when the nutrient medium is supplemented with the oat phytosiderophore, avenic acid. […] Final confirmation of the AvsYS1 transporter's functionality was obtained by comparing Micro-Tom™: AvsYS1 (MT*) transformants with non-transgenic Micro-Tom™ grown hydroponically under iron limiting conditions. (See, e.g., Shikata et al. (2016) “Micro-Tom tomato as an alternative plant model system: mutant collection and efficient transformation” Methods Mol. Biol. 1363:47-55.) Samples were grown in Hoagland's solution (—Fe) at pH 7.4. Iron was provided as 10 μM FeCl3/15 μM avenic acid. Tomatoes normally optimally grow at pH 5.6-6.8. Sample 3 was labelled MT*. This was a Micro-Tom™ variety was transformed with Fe+3/avenic acid transporter isolated from roots of iron starved oats. Sample 4 was an untransformed Micro-Tom™ (MT) plant.
MT* tomatoes grew robustly in Hoagland's solution at a pH of 7.4 supplemented with iron was provided at 10 μM FeCl3 complexed with 15 μM avenic acid.

| Compound | growth of yeast with transporter (DEY1453:pJKD1, 53K) [1] | growth of yeast with transporter (DEY1453:pJKD1, 53K) ([1]; listed as drawing 7) | growth rate of DEY1453:pJKD1 ([1]; ferric iron supplied with the analog, compared to DEY1453:pYES2 controls) | uptake by the avenic acid transporter ([1]; yeast, in the presence of iron) | growth of yeast without transporter (DEY1453:pYES2, 53Y) ([1]; S. cerevisiae DEY1453:pYES2 (no transporter), iron only as Fe+3/avenic acid complex) | growth of MT* (AvsYS1 transformed) tomatoes ([2]; 16 days) | iron deficiency chlorosis in untransformed (MT) tomatoes ([2]; after 16 days) |
| --- | --- | --- | --- | --- | --- | --- | --- |
| O=C(CC(NCCC(NCC[C@H](O)C(=O)O)C(=O)O)C(=O)O)OCc1ccccc1 (stereo partly drawn) [BPA-1-068B] | able to grow | impressive | slower, but undeniably robust | able to be taken up |  |  |  |
| O=C(O)C(CO)NCCC(NCC[C@H](O)C(=O)O)C(=O)O (stereo partly drawn) [MGS-2-128BF] | supported growth as well as avenic acid |  |  |  |  |  |  |
| O=C(O)[C@H](CCO)NCC[C@H](NCC[C@H](O)C(=O)O)C(=O)O [avenic acid, Avenic Acid] | able to grow vigorously |  |  |  | could not | grew robustly | Iron deficiency chlorosis was observed in new leaves |
